From patent publication US5877165A, “Boronated porhyrins and methods for their use” (priority 1997, dated 1999)
Several values for one entry are separate records, joined by “and”; a condition that tells them apart may be missing. Equal values may be shown once. Read-outs that look alike come from different tables or passages of the source.

How the values were obtained:
[1] = clinical BNCT (Coderre, et al., 1997); cited from earlier work
[2] = Boron biodistribution, mice with KHJJ mammary carcinomas (Examples 4-7, Table 1); type: in vivo, BALB/c mice; settings: mouse, ip, 900 mg/kg, 6 hr after last i.p. injection, BPA 900 or NiTCP 160 μg/gbw, median (range)
Method: (§1) Female BALB/c mice (Taconic Farms, Germantown, N.Y.) (20-25 g) were implanted with either KHJJ or EMT-6 tumors. For KHJJ tumors, 1-3 mm^3 tumor fragments were implanted subcutaneously (s.c.) in the dorsal thorax of each mouse using an 18-gauge trocar. For EMT-6 tumors, 2.5×10^5 cells were implanted similarly using a 27-gauge needle. EMT-6 tumor cells were grown alternately in vivo and in vitro. Single-cell suspensions were prepared from mouse-grown tumors by trypsinization. These were grown in cell culture for several passages and then were frozen in 10% DMSO and stored in liquid nitrogen. Prior to implantation in mice, the cells were thawed and grown in tissue culture in Alpha-MEM with 10% FBS for several passages.
(§2) Under deep halothane anesthesia leading to euthanasia, right ventricular blood was collected in Microtainer (Becton-Dickinson, Rutherford, N.J.) tubes containing EDTA for hematological analyses and boron assays of whole blood and in Microtainer™ tubes containing lithium heparin for chemical analyses and enzyme assays of blood plasma. Tumor, brain, fat, muscle, and liver tissues were sampled at necropsy for boron analyses.
(§3) Direct current plasma-atomic emission spectroscopy [DCP-AES] (ARL/Fisons Model SS-7) was used (detection limit: 0.1 μg/ml). Samples (50-130 mg) were digested at 60° C. with sulfuric acid:nitric acid (1:1). Triton X-100 and water were added to give final concentrations of ≈50 mg tissue/ml, 15% total acid v/v and 5% Triton X-100 v/v. Fat and liver tissues were assayed for ^10 B by prompt-gamma spectroscopy (Fairchild, et al., 1986). The prompt-gamma measurements were multiplied by 5.0 to give the total boron concentrations due to the use of boron of natural isotope abundance in the syntheses of all boronated porphyrins reported.
(§4) Seven mice having KHJJ mammary carcinomas were given one intraperitoneal (i.p.) injection of 900 μg/g body weight of the boron compound presently used for BNCT of malignant brain tumors, p-boronophenylalanine (BPA) complexed with fructose. BPA was prepared in accordance with procedure described in Coderre, et al., 1996 incorporated herein by reference in its entirety as if set forth in full.
(§5) Mice were euthanized during the collection of blood while under Halothane anesthesia. At necropsy, the apparent states of structural integrity, consistency, color or abnormality, if any, of tissues were observed and tumor, brain and liver tissues were collected from each mouse for boron analysis.
(§6) Eight mice having KHJJ mammary carcinomas were injected with the NiTCP solution in the amount of 160 μg NiTCP/g body weight (36 μgB/g body weight) in six i.p. injections over 20 hours.
(§7) Six hours after the mice were last injected with NiTCP, mice were euthanized during the collection of blood while under Halothane anesthesia and right ventricular blood was collected from each mouse for hematological and chemical analysis without pooling the samples. At necropsy, the apparent states of structural integrity, consistency, color, or abnormality, if any, of tissues were observed and tumor, brain and liver tissues were collected from each mouse for boron analysis without pooling the samples.
(§8) Seven mice having KHJJ mammary carcinomas were injected with the NiTCP solution in the amount of 160 μg NiTCP/g body weight (36 μgB/g body weight) in six i.p. injections over 20 hours.
as §7, with “Sixteen hours” for “Six hours”, “were” for “were last”, “boron analysis. […]” for “boron analysis without pooling the samples.”

KHJJ mammary carcinomas = experiment: as above; type: in vivo, BALB/c mice; settings: 6 hr after last i.p. injection; BPA 900 or NiTCP 160 μg/gbw; median (range); 900 mg/kg, 360 min
Method: as §1, §2, §3, §4, §5, §6, §7, §8
as §7, with “Sixteen hours” for “Six hours”, “were” for “were last”, “boron analysis. […]” for “boron analysis without pooling the samples.”

[3] = Experiment IV: boron concentrations in tissues, mice bearing EMT-6 tumors (Table 10); type: in vivo, BALB/c mice; settings: mouse, ip, 837 mg/kg, BPA fructose complex, 6 hr, tumor model not restated
Method: (§9) Lipophilic porphyrins 1, 2, 4, 5, and 6 were injected as emulsions in either 3% or 9% CRM and either 6% or 18% PRG with saline as previously described in Example 2 above. Water soluble porphyrins 3 and 7 were dissolved in saline. BPA was solubilized as a fructose complex.
(§10) Female BALB/c mice (from Taconic Farms, Germantown, N.Y.) (20-25 g) were implanted with either KHJJ or EMT-6 tumors according to the procedure described in Example 3A above.
as §2
(§11) In Experiment IV, samples of BPA (836 μg/gbw), CuTCP (160 μg/gbw) and a combination of both were tested in mice with EMT-6 tumors. BPA was given in a single i.p. injection and mice were euthanized 6 hours later. CuTCP was given in 5 i.p. injections over 28 hours and mice were euthanized 90 hrs after the last injection. The group receiving both CuTCP and BPA were injected with CuTCP five times over 28 hours as was the CuTCP-only group and then with a single i.p. injection of BPA 6 hours prior to euthanasia which was 90 hours after the last injection of CuTCP.
(§12) Hematological, chemical and enzymatic tests were carried out as described in Example 3 above. Nonparametric statistical analyses were carried out using the Wilcoxon Two-Sample Test in accordance with procedures described in Slatkin, D.N., 1995. Boron analyses were conducted in accordance with the procedure described in Example 3 above. Fat and liver tissues were assayed for ^10 B by prompt-gamma spectroscopy as described in Fairchild, et al., 1986. These measurements were multiplied by 5.0 to give total boron concentrations due to the use of boron of natural isotope abundance in the syntheses of all boronated porphyrins reported.

EMT-6 tumors = experiment: as above; type: in vivo, BALB/c mice; settings: 90 hrs after last of 5 ip CuTCP (160 μg/gbw); BPA (837 μg/gbw) 1 ip 6 hr before euthanasia; 836 mg/kg
Method: as §9, §10, §2, §11, §12

[4] = Hematological, enzymatic and chemical blood analyses and weight change, mice with KHJJ mammary carcinomas (Examples 4-7, Table 1); type: in vivo, BALB/c mice; settings: NiTCP 160 or BPA 900 μg/gbw; 6-78 hr
Method: as §1, with “passages. […]” for “passages.”
Levels of glucose [GLU], blood urea nitrogen [BUN], blood creatinine [BCR], alanine transaminase [ALT], aspartate transaminase [AST], alkaline phosphatase [ALP], total protein [TPR], albumin [ALB], and creatine phosphokinase [CPK] were determined in blood plasma using a Cobas Fara II microanalysis system. Blood platelets [PLT] and white blood cells [WBC] were counted using a Serono-Baker System 9000 automated hematology microanalyzer. […]

[5] = Toxicity testing of NiTCP, MnTCP and CuTCP in normal mice (Example 13, Table 3); type: in vivo, BALB/c mice; settings: 4 days after last of 6 ip injections
Method: Levels of glucose [GLU], blood urea nitrogen [BUN], blood creatinine [BCR], alanine transaminase [ALT], aspartate transaminase [AST], alkaline phosphatase [ALP], total protein [TPR], albumin [ALB], and creatine phosphokinase [CPK] were determined in blood plasma using a Cobas Fara II microanalysis system. Blood platelets [PLT] and white blood cells [WBC] were counted using a Serono-Baker System 9000 automated hematology microanalyzer.
Compounds prepared as in Example 1B and 1C were formulated with 6% Cremophor EL [CRM] and 12% propylene glycol [PrG] in saline. Total doses of MnTCP and CuTCP of 174 and 223 μg/g body weight, respectively, were administered to normal BALB/c mice. Each mouse was given 6 intraperitoneal [ip] injections over a period of 32 hours. Mice were euthanized 4 days after the last injection and chemical, enzymatic and hematological analyses of their blood were compared to those of similar mice given NiTCP at a dose of 252 μg/g body weight.

[6] = Overall ranking of boronated porphyrins for BNCT guided by biodistribution and toxicity tests in mice (Table 11)
Method: The higher the numerical value, the better the performance of that porphyrin for that property. […] Although VCDP was able to deliver therapeutic amounts of boron to tumor, such side effects such as thrombocytopenia, which was induced within 3 hours after injections, weight loss, and the altered hepatic enzymes were serious enough to rank VCDP considerably behind the TCP's and the TCP-H's (Miura et al., 1992). In addition, the 80-hour drug administration period and the 90-hour blood clearance period are of great inconvenience. Moreover, this 4-day difference between the VCDP and the TCP (or TCP-H) dose and clearance schedules would translate into a 4-day greater delay between initiation of drug administration and neutron irradiation which would allow greater tumor growth to occur.
[…]
biodistribution and toxicity tests in mice. An asterisk indicates

9L gliosarcomas [7] = tested on: 9L gliosarcomas; parameters: species or system Fischer 344 rats; settings: rat, in vivo, iv
Method: 2C. Preparation of CuTCP and CuTCP-H Solution for Rat Studies
(§13) CuTCP-H as prepared in Example 1D was formulated with 9% CRM and 18% PrG to form a solution to which saline was added dropwise to yield 3.34 mg/ml of CuTCP and […] CuTCP-H, respectively. The resulting total doses were 215 mg/kg body weight for CuTCP and 149 mg/kg body weight for CuTCP-H. These solutions were then utilized for toxicity and biodistribution experiments in rats.
as §3
Male Fischer 344 rats each bearing 4 subcutaneous 9L gliosarcomas were given 210-219 mg CuTCP/kg body wt by 48-h iv infusion. Tumor and blood were sampled at 0, 1, 2, and 3 days after the end of infusion for boron analyses and blood for toxicity. Rats were euthanized on day 3 and other organs were analyzed for boron uptake.

9L gliosarcomas [8] = tested on: 9L gliosarcomas; parameters: species or system Fischer 344 rats; settings: rat, in vivo
Method: as §13, §3
CuTCP-H (146-152 mg/kg body weight) was given to four Fischer 344 rats each bearing four subcutaneous 9L gliosarcomas. A solution of 3.34 mg CuTCP-H/mL, in 9% CRM and 18% PrG, was given to rats by 48-hour i.v. infusion in a total volume of 9.6 mL.

N[C@@H](Cc1ccc(B(O)O)cc1)C(=O)O [BPA, p-boronophenylalanine]
brain and blood boron concentrations relative to tumor [1]: approximately one-third that found in tumor | chemical toxicity, in words [1]: not eliciting any chemical toxicity | concentration at 6 h ([2]; blood, read-out: Boron Concentration: Blood): 4600 ng/g | concentration at 6 h ([2]; brain, read-out: Boron Concentration: Brain): 7200 ng/g | concentration at 6 h ([2]; tumor, read-out: Boron Concentration: Tumor): 13800 ng/g | Boron Concentration: Tumor (KHJJ mammary carcinomas): ≈ 14 μg B/g | concentration at 6 h ([3]; blood, read-out: Blood boron): 2000 ng/g | concentration at 6 h ([3]; brain, read-out: Brain boron, median): 8000 ng/g | Boron concentration, Blood (EMT-6 tumors): 2.0 (1.2-3.6) μg B/g | Boron concentration, Brain (EMT-6 tumors): 8.1 (5.9-9.6) μg B/g | Boron concentration, Fat (EMT-6 tumors): 0.4 (0-1.8) μg B/g | Boron concentration, Liver (EMT-6 tumors): 2.1 (0.1-3.1) μg B/g | Boron concentration, Muscle (EMT-6 tumors): 3.8 (2.1-7.9) μg B/g | Boron concentration, Tumor (EMT-6 tumors): 5.4 (3.5-23) μg B/g and 5.4 μg B/g | toxicity, in words [4]: undetectable, minimal, or negligible in every respect

Copper Tetracarboranylphenylporphyrin [CuTCP]
toxicity / thrombocytopenia, in words [5]: little if any difference in toxicity | Drug tolerance/deliverable boron (ranking) [6]: 4 | Lipophilicity (ranking) [6]: 2 | Tumor uptake (normalized) (ranking) [6]: 3 | Tumor:Blood (ranking) [6]: 3 | time to rapid and almost total clearance of boron in blood (9L gliosarcomas [7]): ≤ 2 days | Boron concentration in tumor (9L gliosarcomas [7]; 215 mg/kg, 0 h): 54-68 μg B/g | Boron concentration in tumor (9L gliosarcomas [7]; 215 mg/kg, 48 h): 38-69 μg B/g | boron in cerebellum (9L gliosarcomas [7]; 215 mg/kg, 48 h): 1.5 μg B/g | boron in cerebrum (9L gliosarcomas [7]; 215 mg/kg, 48 h): 2.5 μg B/g | median boron in blood (9L gliosarcomas [7]; 215 mg/kg, 48 h): 6 μg B/g | median boron in tumor (9L gliosarcomas [7]; 215 mg/kg, 48 h): 55 μg B/g | average boron concentration, cerebellum (9L gliosarcomas [7]; 215 mg/kg, 72 h): 1-2 μg B/g | average boron concentration, cerebrum (9L gliosarcomas [7]; 215 mg/kg, 72 h): 1-2 μg B/g

Copper Tetracarboranylporphyrin Hydride [CuTCP-H]
tumor:blood ratio (boron) (9L gliosarcomas [8]; 2880 min): 16:1 | Boron concentration, Blood (9L gliosarcomas [8]; iv, 149 mg/kg, 0 h): 183 (160-205) μg B/g | Boron concentration, Tumor (9L gliosarcomas [8]; iv, 149 mg/kg, 0 h): 45 (23-51) μg B/g | Boron concentration, Blood (9L gliosarcomas [8]; iv, 149 mg/kg, 24 h): 62 (56-65) μg B/g | Boron concentration, Tumor (9L gliosarcomas [8]; iv, 149 mg/kg, 24 h): 46 (35-52) μg B/g | Boron concentration, Blood (9L gliosarcomas [8]; iv, 149 mg/kg, 120 h): 0.6 (0.3-0.7) μg B/g | Boron concentration, Cerebellum (9L gliosarcomas [8]; iv, 149 mg/kg, 120 h): 2.8 (2.1-6.2) μg B/g | Boron concentration, Cerebrum (9L gliosarcomas [8]; iv, 149 mg/kg, 120 h): 4.9 (2.2-6.9) μg B/g | Boron concentration, Liver (9L gliosarcomas [8]; iv, 149 mg/kg, 120 h): 345 (336-408) μg B/g | Boron concentration, Tumor (9L gliosarcomas [8]; iv, 149 mg/kg, 120 h): 31 (23-55) μg B/g

Manganese Tetracarboranylphenylporphyrin [MnTCP]
toxicity / thrombocytopenia, in words [5]: little if any difference in toxicity
